Measured values published in patent US8153593B2, “Transglutaminase inhibitors and methods of use thereof” (The Board of Trustees of the Leland Stanford Junior …, priority 2003, dated 2012).

Target: T1, small intestine mucosal TG2 (Mus musculus, UniProt P21981)
T1 construct: from tissue; host or cells: mouse small intestinal mucosa
T1 sequence (P21981 1-686): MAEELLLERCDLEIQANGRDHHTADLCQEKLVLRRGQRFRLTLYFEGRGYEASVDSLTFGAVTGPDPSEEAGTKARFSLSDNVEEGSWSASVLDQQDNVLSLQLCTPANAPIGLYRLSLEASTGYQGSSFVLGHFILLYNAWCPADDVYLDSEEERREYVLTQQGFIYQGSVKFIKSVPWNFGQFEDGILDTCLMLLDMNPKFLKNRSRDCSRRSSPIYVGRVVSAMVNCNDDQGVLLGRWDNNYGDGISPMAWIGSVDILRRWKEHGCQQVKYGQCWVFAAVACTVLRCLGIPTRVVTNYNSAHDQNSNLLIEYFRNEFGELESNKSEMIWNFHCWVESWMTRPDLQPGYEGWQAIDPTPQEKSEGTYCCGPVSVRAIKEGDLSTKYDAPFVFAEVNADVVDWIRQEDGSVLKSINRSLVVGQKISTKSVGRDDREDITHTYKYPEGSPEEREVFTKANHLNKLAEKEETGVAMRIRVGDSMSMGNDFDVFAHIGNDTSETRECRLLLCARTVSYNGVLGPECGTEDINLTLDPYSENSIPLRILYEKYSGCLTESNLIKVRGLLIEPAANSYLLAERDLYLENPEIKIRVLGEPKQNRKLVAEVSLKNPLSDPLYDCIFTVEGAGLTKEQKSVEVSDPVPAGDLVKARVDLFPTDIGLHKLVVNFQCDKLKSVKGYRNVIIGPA
Test: Small intestine mucosal TG2 activity after intra-peritoneal dosing
Assay type: in vivo, mice
Description: FIG. 7: Time dependent inhibition of small intestine mucosal TG2 in mice dosed intra-peritoneally with 60 mg/kg KCC009. Mice were sacrificed at different times, intestinal mucosa were harvested and assayed for TG2 activity.
Due to the absence of an appropriate animal model for Celiac Sprue, the therapeutic benefit of TG2 inhibitors for this disease can only be validated in patients. Our goal is therefore to identify a safe, oral TG2 inhibitor that can block mucosal TG2 activity in the upper small intestine of Celiac Sprue patients. Such an agent could be used in the context of a short (2 week) blinded crossover trial in Celiac Sprue patients to determine if TG2 inhibition protects a Celiac Sprue patient from gluten-induced malabsorption. From available data, KCC009 may be precisely such a compound. […] To test whether orally administered KCC009 can inhibit jejunal TG2 activity, adult male rats were dosed with 35 mg/kg KCC009 in a kneaded gluten vehicle. Animals were sacrificed 1 h after administration of either vehicle-gluten (n=3) or drug-gluten (n=4), and jejunal mucosa was harvested. In vehicle treated animals, jejunal TG2 activity was 21±7 pmol/min/mg protein, whereas in KCC009 treated rats TG2 activity of 5.5±3 pmol/min/mg protein was observed. Thus, a suitable oral formulation may therefore enable local delivery of KCC009 to intestinal mucosa.

## O=C(N[C@@H](Cc1ccc(O)cc1)C(=O)NCC1CC(Br)=NO1)OCc1ccccc1 (stereo partly drawn) [Compound 59]
60 mg/kg intra-peritoneal
  time to complete recovery of TG2 activity: ≤ 8 h
60 mg/kg intra-peritoneal, short timescale (˜1 h)
  inhibition of TG2 activity: strong inhibition of TG2 activity
mice, preliminary pharmacodynamic study
  TG2 inhibition in small intestinal tissue: efficient TG2 inhibition
